Measurements: ChEMBL document CHEMBL3885861, “Open TG-GATES”

Species on record: Rattus norvegicus
Experiment: Open TG-GATES - Regimen: Daily Repeat
Format: toxicity, organism-based, Sprague-Dawley
Parameters: regimen Daily Repeat, gender Male, age 6 weeks
Settings: in vivo, po, 30 mg/kg, route gavage, dose level Low; for APTT / Bas / Eos / Fbg / Hb / Ht / Lym / MCH / MCHC / MCV / Mono / Neu / PT / Plat / RBC / Ret / WBC: tissue Blood; for KIDNEY_L / KIDNEY_R / KIDNEY_TOTAL: tissue Kidney; for LIVER: tissue Liver; for A/G / ALP / ALT / AST / BUN / CRE / Ca / Cl / DBIL / GLC / IP / K / LDH / Na / PL / RALB / TBIL / TC / TG / TP / gamma-GTP: tissue Plasma

Brc1ccccc1 [BROMOBENZENE]
TERMINAL_BW (72 h, time 3 day): 211.4 g
APTT (72 h, time 3 day): 16.2 s
Bas (72 h, time 3 day): 0%
Eos (72 h, time 3 day): 1%
Fbg (72 h, time 3 day): 274.2 mg/dL
Hb (72 h, time 3 day): 13.2 g/dL
Ht (72 h, time 3 day): 38.9%
Lym (72 h, time 3 day): 76.6%
MCH (72 h, time 3 day): 21.2 pg
MCHC (72 h, time 3 day): 34%
MCV (72 h, time 3 day): 62.4 fL
Mono (72 h, time 3 day): 4.2%
Neu (72 h, time 3 day): 17.8%
PT (72 h, time 3 day): 12 s
Plat (72 h, time 3 day): 113.4 x10_4/uL
RBC (72 h, time 3 day): 624.8 x10_4/ul
Ret (72 h, time 3 day): 7.4%
WBC (72 h, time 3 day): 117.5 x10_2/uL
KIDNEY_L (72 h, time 3 day): 0.9 g
KIDNEY_R (72 h, time 3 day): 0.9 g
KIDNEY_TOTAL (72 h, time 3 day): 1.8 g
LIVER (72 h, time 3 day): 10.6 g
A/G (72 h, time 3 day): 0.9
ALP (72 h, time 3 day): 1588.2 IU/L
ALT (72 h, time 3 day): 54.2 IU/L
AST (72 h, time 3 day): 70.2 IU/L
BUN (72 h, time 3 day): 13.8 mg/dL
CRE (72 h, time 3 day): 0.2 mg/dL
Ca (72 h, time 3 day): 10.4 mg/dL
Cl (72 h, time 3 day): 105.2 meq/L
DBIL (72 h, time 3 day): 0.012 mg/dL
GLC (72 h, time 3 day): 182 mg/dL
IP (72 h, time 3 day): 7.3 mg/dL
K (72 h, time 3 day): 4.1 meq/L
LDH (72 h, time 3 day): 77 IU/L
Na (72 h, time 3 day): 142 meq/L
PL (72 h, time 3 day): 154 mg/dL
RALB (72 h, time 3 day): 2.6 g/dL
TBIL (72 h, time 3 day): 0.05 mg/dL
TC (72 h, time 3 day): 84.6 mg/dL
TG (72 h, time 3 day): 76 mg/dL
TP (72 h, time 3 day): 5.6 g/dL
gamma-GTP (72 h, time 3 day): 1.2 IU/L
TERMINAL_BW ([…], time 7 day): 250.4 g
TERMINAL_BW ([…], time 14 day): 301.3 g
TERMINAL_BW ([…], time 28 day): 378.5 g
APTT ([…], time 7 day): 16.1 s
Bas ([…], time 7 day): 0%
Eos ([…], time 7 day): 1%
Fbg ([…], time 7 day): 272.4 mg/dL
Hb ([…], time 7 day): 12.9 g/dL
Ht ([…], time 7 day): 37.6%
Lym ([…], time 7 day): 78%
MCH ([…], time 7 day): 21.3 pg
MCHC ([…], time 7 day): 34.4%
MCV ([…], time 7 day): 62 fL
Mono ([…], time 7 day): 2.6%
Neu ([…], time 7 day): 18%
PT ([…], time 7 day): 12.7 s
Plat ([…], time 7 day): 117.9 x10_4/uL
RBC ([…], time 7 day): 606.8 x10_4/ul
Ret ([…], time 7 day): 6.2%
WBC ([…], time 7 day): 100.6 x10_2/uL
APTT ([…], time 14 day): 16 s
Bas ([…], time 14 day): 0%
Eos ([…], time 14 day): 0.8%
Fbg ([…], time 14 day): 316.2 mg/dL
Hb ([…], time 14 day): 14.2 g/dL
Ht ([…], time 14 day): 41.2%
Lym ([…], time 14 day): 81.6%
MCH ([…], time 14 day): 20.5 pg
MCHC ([…], time 14 day): 34.5%
MCV ([…], time 14 day): 59.2 fL
Mono ([…], time 14 day): 2.6%
Neu ([…], time 14 day): 14.4%
PT ([…], time 14 day): 11.7 s
Plat ([…], time 14 day): 116 x10_4/uL
RBC ([…], time 14 day): 696.6 x10_4/ul
Ret ([…], time 14 day): 4.2%
WBC ([…], time 14 day): 87.7 x10_2/uL
APTT ([…], time 28 day): 16.4 s
Bas ([…], time 28 day): 0.2%
Eos ([…], time 28 day): 1.2%
Fbg ([…], time 28 day): 305.8 mg/dL
Hb ([…], time 28 day): 15 g/dL
Ht ([…], time 28 day): 42.8%
Lym ([…], time 28 day): 75.6%
MCH ([…], time 28 day): 19.7 pg
MCHC ([…], time 28 day): 35%
MCV ([…], time 28 day): 56.2 fL
Mono ([…], time 28 day): 3%
Neu ([…], time 28 day): 19%
PT ([…], time 28 day): 12.6 s
Plat ([…], time 28 day): 103.7 x10_4/uL
RBC ([…], time 28 day): 762.2 x10_4/ul
Ret ([…], time 28 day): 2.7%
WBC ([…], time 28 day): 101.5 x10_2/uL
KIDNEY_L ([…], time 7 day): 1 g
KIDNEY_R ([…], time 7 day): 1 g
KIDNEY_TOTAL ([…], time 7 day): 2 g
KIDNEY_L ([…], time 14 day): 1.2 g
KIDNEY_R ([…], time 14 day): 1.2 g
KIDNEY_TOTAL ([…], time 14 day): 2.4 g
KIDNEY_L ([…], time 28 day): 1.3 g
KIDNEY_R ([…], time 28 day): 1.3 g
KIDNEY_TOTAL ([…], time 28 day): 2.7 g
LIVER ([…], time 7 day): 12.3 g
LIVER ([…], time 14 day): 14.5 g
LIVER ([…], time 28 day): 16.3 g
A/G ([…], time 7 day): 0.9
ALP ([…], time 7 day): 1766.2 IU/L
ALT ([…], time 7 day): 40.6 IU/L
AST ([…], time 7 day): 71 IU/L
BUN ([…], time 7 day): 14.4 mg/dL
CRE ([…], time 7 day): 0.2 mg/dL
Ca ([…], time 7 day): 11.1 mg/dL
Cl ([…], time 7 day): 105.2 meq/L
DBIL ([…], time 7 day): 0.01 mg/dL
GLC ([…], time 7 day): 195 mg/dL
IP ([…], time 7 day): 7 mg/dL
K ([…], time 7 day): 3.9 meq/L
LDH ([…], time 7 day): 109 IU/L
Na ([…], time 7 day): 143.4 meq/L
PL ([…], time 7 day): 143 mg/dL
RALB ([…], time 7 day): 2.7 g/dL
TBIL ([…], time 7 day): 0.042 mg/dL
TC ([…], time 7 day): 74.6 mg/dL
TG ([…], time 7 day): 84.4 mg/dL
TP ([…], time 7 day): 5.8 g/dL
gamma-GTP ([…], time 7 day): 1.4 IU/L
A/G ([…], time 14 day): 0.8
ALP ([…], time 14 day): 1573.2 IU/L
ALT ([…], time 14 day): 40 IU/L
AST ([…], time 14 day): 65 IU/L
BUN ([…], time 14 day): 15.2 mg/dL
CRE ([…], time 14 day): 0.2 mg/dL
Ca ([…], time 14 day): 11 mg/dL
Cl ([…], time 14 day): 105.6 meq/L
DBIL ([…], time 14 day): 0.01 mg/dL
GLC ([…], time 14 day): 191.6 mg/dL
IP ([…], time 14 day): 6.8 mg/dL
K ([…], time 14 day): 4.1 meq/L
LDH ([…], time 14 day): 84.8 IU/L
Na ([…], time 14 day): 143 meq/L
PL ([…], time 14 day): 158.2 mg/dL
RALB ([…], time 14 day): 2.8 g/dL
TBIL ([…], time 14 day): 0.038 mg/dL
TC ([…], time 14 day): 74.2 mg/dL
TG ([…], time 14 day): 159.4 mg/dL
TP ([…], time 14 day): 6.2 g/dL
gamma-GTP ([…], time 14 day): 0.8 IU/L
A/G ([…], time 28 day): 0.8
ALP ([…], time 28 day): 1032.4 IU/L
ALT ([…], time 28 day): 36 IU/L
AST ([…], time 28 day): 59.8 IU/L
BUN ([…], time 28 day): 15.8 mg/dL
CRE ([…], time 28 day): 0.2 mg/dL
Ca ([…], time 28 day): 10.7 mg/dL
Cl ([…], time 28 day): 105.8 meq/L
DBIL ([…], time 28 day): 0.016 mg/dL
GLC ([…], time 28 day): 190.2 mg/dL
IP ([…], time 28 day): 6 mg/dL
K ([…], time 28 day): 3.8 meq/L
LDH ([…], time 28 day): 58.6 IU/L
Na ([…], time 28 day): 142.8 meq/L
PL ([…], time 28 day): 152.2 mg/dL
RALB ([…], time 28 day): 2.9 g/dL
TBIL ([…], time 28 day): 0.034 mg/dL
TC ([…], time 28 day): 80.6 mg/dL
TG ([…], time 28 day): 141.4 mg/dL
TP ([…], time 28 day): 6.5 g/dL
gamma-GTP ([…], time 28 day): 1 IU/L
